This test addresses human PDE10A2 (Homo sapiens (Human), UniProt Q9Y233). The test is described as follows: PDE10 fluorescence polarization (IMAP FP) inhibition assay. It counts as biochemical. The following applies: apparent inhibition constant, FAM-labeled cAMP substrate 50 nM, room temperature. As for the experimental part:
The activity of the compounds in accordance with the present invention as PDE10 inhibitors may be readily determined without undue experimentation using a fluorescence polarization (FP) methodology that is well known in the art (Huang, W., et al., J. Biomol Screen, 2002, 7: 215).
In a typical experiment the PDE10 inhibitory activity of the compounds of the present invention was determined in accordance with the following experimental method. PDE10A2 was amplified from human fetal brain cDNA (Clontech, Mountain View, Calif.) using a forward primer corresponding to nucleotides 56-77 of human PDE10A2 (Accession No. AF127480, Genbank Identifier 4894716), containing a Kozak consensus sequence, and a reverse primer corresponding to nucleotides 2406-2413 of human PDE10A2 (Accession No. AF127480, Genbank Identifier 4894716). Amplification with Easy-A polymerase (Stratagene, La Jolla, Calif.) was 95° C. for 2 minutes followed by thirty three cycles of 95° C. for 40 seconds, 55° C. for 30 seconds, and 72° C. for 2 minutes 48 seconds. Final extension was 72° C. for 7 minutes. The PCR product was TA cloned into pcDNA3.2-TOPO (Invitrogen, Carlsbad, Calif.) according to standard protocol. AD293 cells with 70-80% confluency were transiently transfected with human PDE10A2/pcDNA3.2-TOPO using Lipofectamine 2000 according to manufacturer specifications (Invitrogen, Carlsbad, Calif.). Cells were harvested 48 hours post-transfection and lysed by sonication (setting 3, 10×5 sec pulses) in a buffer containing 20 mM HEPES, 1 mM EDTA and protease inhibitor cocktail (Roche). Lysate was collected by centrifugation at 75,000×g for 20 minutes. Supernatant containing the cytoplasmic fraction was used for evaluation of PDE10A2 activity. The fluorescence polarization assay for cyclic nucleotide phosphodiesterases was performed using an IMAP® FP kit supplied by Molecular Devices, Sunnyvale, Calif. (product # R8139). IMAP® technology has been applied previously to phosphodiesterase assays (Huang, W., et al., J. Biomol Screen, 2002, 7: 215). Assays were performed at room temperature in 384-well microtiter plates with an incubation volume of 20.2 μL. Solutions of test compounds were prepared in DMSO and serially diluted with DMSO to yield 8 μL of each of 10 solutions differing by 3-fold in concentration, at 32 serial dilutions per plate. 100% inhibition is determined using a known PDE10 inhibitor, which can be any compound that is present at 5,000 times its Ki value in the assay described as follows, such as papaverine (see Siuciak, et al. Neuropharmacology (2006) 51:386-396; Becker, et al. Behav Brain Res (2008) 186(2):155-60; Threlfell, et al., J Pharmacol Exp Ther (2009) 328(3):785-795), 2-{4-[pyridin-4-yl-1-(2,2,2-trifluoroethyl)-1H-pyrazol-3-yl]phenoxymethyl}quinoline succinic acid or 2-[4-(1-methyl-4-pyridin-4-yl-1H-pyrazol-3-yl)-phenoxymethyl]quinoline succinic acid (see Schmidt, et al. J Pharmacol Exp Ther (2008) 325:681-690; Threlfell, et al., J Pharmacol Exp Ther (2009) 328(3): 785-795). 0% of inhibition is determined by using DMSO (1% final concentrations). A Labcyte Echo 555 (Labcyte, Sunnyvale, Calif.) is used to dispense […] from each well of the titration plate to the 384 well assay plate. A solution of enzyme (1/7000 dilution from aliquots; sufficient to produce 20% substrate conversion) and a separate solution of FAM-labeled cAMP PDE from Molecular Devices (product # R7506), at a final concentration of 50 nM are made in the assay buffer (10 mM Tris HCl, pH 7.2, 10 mM MgCl2, 0.05% NaN3 0.01% Tween-20, and 1 mM DTT). The enzyme is added to the assay plates by the addition of 10 μL of enzyme solution to each well, shaken to mix and incubated at room temperature for 60 minutes. The substrate is then added to the assay plates by the addition of 10 μL of substrate solution to each well, shaken to mix, and incubated at room temperature for 60 minutes. […]
For orientation: Fluorescence polarisation rises when a labelled molecule tumbles more slowly, as on binding a larger partner.

Molecules are shown by their SMILES. Some results are limits rather than exact numbers.

This note sets out measurements from US9365562B2, “1,3 substituted azetidine PDE10 inhibitors” (Merck Sharp & Dohme Corp., priority 2011, dated 2016).

Sequence of human PDE10A2 (Q9Y233 267-1055): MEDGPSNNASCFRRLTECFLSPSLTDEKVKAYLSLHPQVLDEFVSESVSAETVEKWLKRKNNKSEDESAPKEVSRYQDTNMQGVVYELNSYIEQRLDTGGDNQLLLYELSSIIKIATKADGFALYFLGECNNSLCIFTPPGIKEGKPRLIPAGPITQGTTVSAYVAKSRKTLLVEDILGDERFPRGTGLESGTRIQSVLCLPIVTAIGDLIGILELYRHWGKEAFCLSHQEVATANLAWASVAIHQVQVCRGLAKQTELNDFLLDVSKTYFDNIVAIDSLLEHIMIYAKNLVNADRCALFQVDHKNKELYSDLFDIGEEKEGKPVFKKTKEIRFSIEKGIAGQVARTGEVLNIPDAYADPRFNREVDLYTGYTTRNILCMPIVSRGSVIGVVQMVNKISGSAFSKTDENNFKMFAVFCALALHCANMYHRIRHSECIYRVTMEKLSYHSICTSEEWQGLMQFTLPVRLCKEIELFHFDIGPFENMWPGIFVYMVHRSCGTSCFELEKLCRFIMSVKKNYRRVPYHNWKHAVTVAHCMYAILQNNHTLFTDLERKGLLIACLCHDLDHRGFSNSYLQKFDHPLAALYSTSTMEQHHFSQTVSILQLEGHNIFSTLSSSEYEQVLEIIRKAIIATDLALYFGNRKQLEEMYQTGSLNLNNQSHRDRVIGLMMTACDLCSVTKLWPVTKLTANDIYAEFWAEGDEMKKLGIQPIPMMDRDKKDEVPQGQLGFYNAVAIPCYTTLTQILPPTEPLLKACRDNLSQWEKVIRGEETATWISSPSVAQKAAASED

In the case of `COCCc1nc(C)nn1-c1cc(N2CC(c3nc4ccccc4n3C)C2)nc(C)n1` [Example 42, 2-(1-(6-(5-(2-methoxyethyl)-3-methyl-1H-1,2,4-triazol-1-yl)-2-methylpyrimidin-4-yl)azetidin-3-yl)-1-methyl-1H-benzo[d]imidazole], the Ki was 1.9 nM.

`Cc1nc(C)n(-c2cc(N3CC(c4nc5ccccc5n4C)C3)nc(OCc3ccno3)n2)n1` [Example 71, 5-(((4-(3,5-dimethyl-1H-1,2,4-triazol-1-yl)-6-(3-(1-methyl-1H-benzo[d]imidazol-2-yl)azetidin-1-yl)pyrimidin-2-yl)oxy)methyl)isoxazole]: the Ki stood at 0.4 nM.

For the compound `Cc1nc(C)n(-c2cc(N3CC(c4nc5ccccc5n4C)C3)nc(OC(C)C)n2)n1` [Example 70, 2-{1-[6-(3,5-dimethyl-1H-1,2,4-triazol-1-yl)-2-isopropoxypyimidin-4-yl]azetidin-3-yl}-1-methyl-1H-benzimidazole], the Ki was 0.38 nM.

On to `Cc1nc(N2CC(c3nc4ccccc4n3C)C2)cc(-n2nc(C)nc2-c2cccnc2)n1` [Example 52, 1-methyl-2-(1-(2-methyl-6-(3-methyl-5-(pyridin-3-yl)-1H-1,2,4-triazol-1-yl)pyrimidin-4-yl)azetidin-3-yl)-1H-benzo[d]imidazole], for which the Ki turned out to be 7.5 nM.

As for `Cc1nc(N2CC(c3nc4c(C)cccc4n3C)C2)cc(-n2nc(C)nc2C)n1` [Example 124, 2-(1-(6-(3,5-dimethyl-1H-1,2,4-triazol-1-yl)-2-methylpyrimidin-4-yl)azetidin-3-yl)-1,4-dimethyl-1H-benzo[d]imidazole], the Ki worked out at 22 nM.

Consider `Cc1cc(C(F)(F)F)n(-c2cc(N3CC(c4nc5ccccc5n4C)C3)nc(C)n2)n1` [Example 10, 1-methyl-2-(1-(2-methyl-6-(3-methyl-5-(trifluoromethyl)-1H-pyrazol-1-yl)pyrimidin-4-yl)azetidin-3-yl)-1H-benzo[d]imidazole], for which the Ki worked out at 4 nM.

As to `Cc1nc(N2CC(c3nc4ccccc4n3C)C2)cc(-n2cc(C#N)cn2)n1` [Example 17, 1-(2-methyl-6-(3-(1-methyl-1H-benzo[d]imidazol-2-yl)azetidin-1-yl)pyrimidin-4-yl)-1H-pyrazole-4-carbonitrile], the Ki was 4.2 nM.

For the compound `Cc1nc(N2CC(c3nc4ccccc4n3C)C2)cc(-n2ccc(C(C)C)n2)n1` [Example 14, 2-(1-(6-(3-isopropyl-1H-pyrazol-1-yl)-2-methylpyrimidin-4-yl)azetidin-3-yl)-1-methyl-1H-benzo[d]imidazole], the Ki was 0.65 nM.

Consider `COc1cccnc1-c1cc(N2CC(c3nc4ccccc4n3C)C2)nc(C)n1` [Example 100, 2-(1-(6-(3-methoxypyridin-2-yl)-2-methylpyrimidin-4-yl)azetidin-3-yl)-1-methyl-1H-benzo[d]imidazole], for which the Ki turned out to be 41 nM.

On to `CCc1cnn(-c2cc(N3CC(c4nc5ccccc5n4C)C3)nc(C)n2)c1` [Example 15, 2-(1-(6-(4-ethyl-1H-pyrazol-1-yl)-2-methylpyrimidin-4-yl)azetidin-3-yl)-1-methyl-1H-benzo[d]imidazole], for which the Ki turned out to be 3.4 nM.

As to `Cc1nc(-c2ccccc2C(=O)O)cc(N2CC(c3nc4ccccc4n3C)C2)n1` [Example 93, 2-(2-methyl-6-(3-(1-methyl-1H-benzo[d]imidazol-2-yl)azetidin-1-yl)pyrimidin-4-yl)benzoic acid], the Ki is 19 nM.

Consider `COCc1nc(C)nn1-c1cc(N2CC(c3nc4ccccc4n3C)C2)nc(C)n1` [Example 59, 2-(1-{6-[5-(methoxymethyl)-3-methyl-1H-1,2,4-triazol-1-yl]-2-methylpyrimidin-4-yl}azetidin-3-yl)-1-methyl-1H-benzimidazole], for which the Ki was found to be 1.5 nM.

As to `Cc1cn(-c2cc(N3CC(c4nc5ccccc5n4C)C3)nc(C3CC3)n2)nn1` [Example 32, 2-(1-(2-cyclopropyl-6-(4-methyl-1H-1,2,3-triazol-1-yl)pyrimidin-4-yl)azetidin-3-yl)-1-methyl-1H-benzo[d]imidazole], the Ki was 1.1 nM.

In the case of `Cc1nc(C2CCOCC2)n(-c2cc(N3CC(c4nc5ccccc5n4C)C3)nc(C(F)(F)F)n2)n1` [Example 69, 1-methyl-2-(1-(6-(3-methyl-5-(tetrahydro-2H-pyran-4-yl)-1H-1,2,4-triazol-1-yl)-2-(trifluoromethyl)pyrimidin-4-yl)azetidin-3-yl)-1H-benzo[d]imidazole], the Ki was 1.8 nM.

Regarding `Cc1nc(N2CC(c3nc4ccccc4[nH]3)C2)cc(-n2nc(C)nc2C)n1` [Example 107, 2-(1-(6-(3,5-Dimethyl-1H-1,2,4-triazol-1-yl)-2-methylpyrimidin-4-yl)azetidin-3-yl)-1H-benzo[d]imidazole], the Ki is 5.8 nM.

Take `Cc1nc(N2CC(c3nc4ccc(C(F)(F)F)cc4[nH]3)C2)cc(-n2nc(C)nc2C)n1` [Example 113, 2-(1-(6-(3,5-dimethyl-1H-1,2,4-triazol-1-yl)-2-methylpyrimidin-4-yl)azetidin-3-yl)-6-(trifluoromethyl)-1H-benzo[d]imidazole]: the Ki was above 75 nM.

For the compound `Cc1nc(N2CC(c3nc4ccccc4n3C)C2)cc(-n2nc(C)nc2CN2CCCC2=O)n1` [Example 48, 1-((3-methyl-1-(2-methyl-6-(3-(1-methyl-1H-benzo[d]imidazol-2-yl)azetidin-1-yl)pyrimidin-4-yl)-1H-1,2,4-triazol-5-yl)methyl)pyrrolidin-2-one], the Ki came out at 0.26 nM.

As for `Cc1nc(N2CC(c3nc4ccccc4n3C)C2)cc(-n2nc(C)nc2-c2ccc(C#N)cc2)n1` [Example 54, 4-(3-methyl-1-(2-methyl-6-(3-(1-methyl-1H-benzo[d]imidazol-2-yl)azetidin-1-yl)pyrimidin-4-yl)-1H-1,2,4-triazol-5-yl)benzonitrile], the Ki was found to be 16 nM.

As to `Cc1nc(N2CC(c3nc4ccc(F)cc4[nH]3)C2)cc(-n2nc(C)nc2C)n1` [Example 109, 2-(1-(6-(3,5-dimethyl-1H-1,2,4-triazol-1-yl)-2-methylpyrimidin-4-yl)azetidin-3-yl)-6-fluoro-1H-benzo[d]imidazole], the Ki is 8 nM.

Turning to `CCc1nc(C)nn1-c1cc(N2CC(c3nc4ccccc4n3C)C2)nc(C)n1` [Example 35, 2-(1-(6-(5-ethyl-3-methyl-1H-1,2,4-triazol-1-yl)-2-methylpyrimidin-4-yl)azetidin-3-yl)-1-methyl-1H-benzo[d]imidazole], the Ki is 0.81 nM.

Take `Cc1nc(C)n(-c2cc(N3CC(c4nc5ccccc5n4C)C3)nc(C(F)(F)F)n2)n1` [Example 60, 2-{1-[6-(3,5-dimethyl-1H-1,2,4-triazol-1-yl)-2-(trifluoromethyl)pyrimidin-4-yl]azetidin-3-yl}-1-methyl-1H-benzimidazole]: the Ki was determined as 1.1 nM.

Consider `Cc1cn(-c2cc(N3CC(c4nc5ccccc5n4C)C3)nc(C)n2)nn1` [Example 29, 1-methyl-2-(1-(2-methyl-6-(4-methyl-1H-1,2,3-triazol-1-yl)pyrimidin-4-yl)azetidin-3-yl)-1H-benzo[d]imidazole], for which the Ki stood at 3.1 nM.

For `Cc1nc(N2CC(c3nc4c(F)cccc4n3C)C2)cc(-n2nc(C)nc2C)n1` [Example 122, 2-(1-(6-(3,5-dimethyl-1H-1,2,4-triazol-1-yl)-2-methylpyrimidin-4-yl)azetidin-3-yl)-4-fluoro-1-methyl-1H-benzo[d]imidazole], the Ki stood at 17 nM.
